From patent US9931324B2, “Indolizine derivatives and their use in neurodegenerative diseases” (Merck Patent GmbH, priority 2014, dated 2018) come the findings set out here.

Where only a bound is given, the exact number is not on record here.

Assay [1] deals with T1, P2X7 (Homo sapiens, UniProt Q99572).
T1 sequence (Q99572 1-595): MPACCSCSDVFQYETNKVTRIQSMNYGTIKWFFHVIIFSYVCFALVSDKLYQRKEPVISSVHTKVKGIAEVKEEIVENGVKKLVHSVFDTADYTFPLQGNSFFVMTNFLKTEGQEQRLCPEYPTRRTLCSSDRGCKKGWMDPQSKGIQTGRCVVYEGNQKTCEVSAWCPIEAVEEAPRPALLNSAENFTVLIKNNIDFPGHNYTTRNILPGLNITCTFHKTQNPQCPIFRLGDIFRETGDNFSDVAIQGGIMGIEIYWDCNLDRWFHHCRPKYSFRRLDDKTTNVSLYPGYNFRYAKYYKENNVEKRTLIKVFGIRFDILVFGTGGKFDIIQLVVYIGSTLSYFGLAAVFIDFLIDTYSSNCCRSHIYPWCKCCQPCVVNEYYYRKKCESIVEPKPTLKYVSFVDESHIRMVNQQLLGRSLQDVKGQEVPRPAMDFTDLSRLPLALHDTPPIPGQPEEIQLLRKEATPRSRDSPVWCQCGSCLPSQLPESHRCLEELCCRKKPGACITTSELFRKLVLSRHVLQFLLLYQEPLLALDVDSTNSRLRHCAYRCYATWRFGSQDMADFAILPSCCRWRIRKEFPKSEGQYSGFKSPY
Nature of the assay: IL-1β release assay in THP-1 cells (sandwich ELISA, BzATP-stimulated). It counts as cell-based. Further details: endogenous in cells; host or cells: THP-1 cells (PMA-differentiated, LPS-primed). Particulars: LPS primed, 0.8 mM BzATP, mature IL-1β release, read-out: hTHP-1/IL-ib IC50. As to the method: IL-1β release assay: The activation of P2X7 by ATP leads to a fast transient activation of cells resulting in influx of Ca^2+ followed by conversion of pro-IL-1β to active IL-1β. The functional activity of P2X7 compounds was measured by the release of mature IL-1β in the culture medium of THP-1 cells, detected by sandwich ELISA. Cells were maintained in complete growth medium (RPMI 1640+10% HI-FCS+2 mM L-glutamine+1× PS). […] THP-1 cells were harvested from the flask in 50 ml by centrifugation for 3 min at 100 g. The cells were resuspended to 2×10^5 cells/ml in medium supplemented with 0.5 μM PMA and incubated. The cells were washed and resuspended to 1.5×10^5 cells/ml in medium complemented with 10 ng/ml LPS, and the cells were primed for 4 h at 37° C., 5% CO2. After addition of 20 μL of prediluted test compounds, blank, standard and control reagents, cells were incubated for a further 20 min at 37° C. and stimulated with 0.8 mM BzATP for 30 minutes. The cells were centrifuged, supernatant was collected and the presence of mature IL-1β was detected using Dual human IL-1b kit following manufacturer's instruction. The tetrahydrobenzodiazepine analogs effectively modulated the activity of P2X7 in the cells as measured by the levels of pro-inflammatory cytokine IL-1β, which is released by the activation of P2X7 receptor.
(In general: In an ELISA, binding on a coated surface is turned into a signal by an enzyme label.)

Assay [2] deals with T1, P2X7. Nature of the assay: Pore permeation assay (YO PRO dye uptake, BzATP-induced). It counts as cell-based. The settings on record: HEK293 transfected with human P2X7 receptor, BzATP 10 uM, read-out: hP2X7 IC50. Details: expressed in transfected cells; host or cells: HEK293. In a few lines:
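HEK293 cells overexpressing human P2X7 were plated overnight, then placed in low-divalent HEPES buffer pH 7.4 (0.1 mM CaCl2, 125 mM NaCl). Compounds (10 points from 2.5 μM) were preincubated for 20 min at room temperature. YO-PRO (1 μM) was added with BzATP (10 μM), and dye uptake was read by fluorescence after 30 min.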

On to `COCCc1cc(C(=O)NCC2(O)CCCC(F)(F)C2)c2c(C(F)(F)F)cccn12` (stereo not shown) [Compound 60, 3-(2-Methoxy-ethyl)-8-trifluoro methylindolizine-1-carboxylic Acid (3,3-difluoro-1-hydroxy-cyclohexylmethyl)-amide], for which the IC50 in assay [1] lay within 10 to 100 nM; in assay [2], 101 to 500 nM.
Consider `O=C(NCC1(O)CCC(F)(F)CC1)c1cc(C2CCOC2)n2cccc(Cl)c12` (stereo not shown) [Compound 61, 8-chloro-N-((4,4-difluoro-1-hydroxycyclohexyl)methyl)-3-(tetrahydrofuran-3-yl)indolizine-1-carboxamide], for which the IC50 in assay [1] and in assay [2] was 10 to 100 nM in each case.
As to `COCCc1cc(C(=O)NCC2(O)CCCC(F)(F)C2)c2c(Cl)cccn12` (stereo not shown) [Compound 62, 8-Chloro-3-(2-methoxy-ethyl)-indolizine-1-carboxylic Acid (3,3-difluoro-1-hydroxycyclohexylmethyl)-amide], the IC50 is 10 to 100 nM in assay [1] and under 10 nM in assay [2].
In the same order, the values of `COCCc1cc(C(=O)NC[C@]2(O)CCCC(F)(F)C2)c2c(Cl)cccn12` [Compound 64, 8-Chloro-3-(2-methoxy-ethyl)-indolizine-1-carboxylic Acid ((S)-3,3-difluoro-1-hydroxy-cyclohexylmethyl)-amide] are 101 to 500 nM and 10 to 100 nM.
In the same order, the values of `O=C(NCC1(O)CCCC(F)(F)C1)c1cc(C2CCOC2)n2cccc(Cl)c12` (stereo not shown) [Compound 65, 8-Chloro-3-(tetrahydro-furan-3-yl)-indolizine-1-carboxylic Acid (3,3-difluoro-1-hydroxycyclohexyl methyl)-amide] are 10 to 100 nM and 10 to 100 nM.
In the case of `O=C(NC[C@@]1(O)CCCC(F)(F)C1)c1cc(C2CCOC2)n2cccc(Cl)c12` (stereo partly drawn) [Compound 66, 8-chloro-N—(((R)-3,3-difluoro-1-hydroxycyclohexyl)methyl)-3-(tetrahydrofuran-3-yl)indolizine-1-carboxamide], the IC50 in assay [1] is 101 to 500 nM; in assay [2], 10 to 100 nM.
Taken in the same sequence, the figures for `O=C(NC[C@]1(O)CCCC(F)(F)C1)c1cc(C2CCOC2)n2cccc(Cl)c12` (stereo partly drawn) [Compound 67, 8-chloro-N—(((S)-3,3-difluoro-1-hydroxycyclohexyl)methyl)-3-(tetrahydrofuran-3-yl)indolizine-1-carboxamide] were 10 to 100 nM and 10 to 100 nM.
As for `CCOCCc1cc(C(=O)NCC2(O)CCC(F)(F)CC2)c2c(Cl)cccn12` [Compound 69, 8-Chloro-3-(2-ethoxy-ethyl)-indolizine-1-carboxylic Acid (4,4-difluoro-1-hydroxy-cyclohexylmethyl)-amide], the IC50 in assay [1] and in assay [2] was 101 to 500 nM in each case.
On to `CCOCCc1cc(C(=O)NCC2(O)CCCC(F)(F)C2)c2c(Cl)cccn12` (stereo not shown) [Compound 70, 8-Chloro-3-(2-ethoxy-ethyl)-indolizine-1-carboxylic Acid (3,3-difluoro-1-hydroxy-cyclohexylmethyl)-amide], for which the IC50 in assay [1] and in assay [2] was 10 to 100 nM throughout.
Consider `C[C@@H]1CCC[C@](O)(CNC(=O)c2cc(C3CCC3)n3cccc(Cl)c23)C1` [Compound 71, 8-chloro-3-cyclobutyl-N-(((1R,3R)-1-hydroxy-3-methylcyclohexyl)methyl) indolizine-1-carboxamide], for which the IC50 in assay [1] and in assay [2] was 10 to 100 nM in each case.
Regarding `[2H]C([2H])([2H])OCCc1cc(C(=O)NCC2CCC(F)(F)CC2)c2c(Cl)cccn12` [Compound 72], the IC50 in assay [1] and in assay [2] was 10 to 100 nM in each case.
For the compound `CCOCCc1cc(C(=O)NC[C@@]2(O)CCC[C@@H](C)C2)c2c(Cl)cccn12` [Compound 73], the IC50 in assay [1] and in assay [2] was 10 to 100 nM in each case.
Take “(R)-8-chloro-N-((4,4-difluoro-1-hydroxycyclohexyl)methyl)-3-((tetrahydrofuran-3-yl)methyl)indolizine-1-carboxamide [Compound 50]”: the IC50 in assay [1] lay within 101 to 500 nM; in assay [2], 10 to 100 nM.
Taken in the same sequence, the figures for “(S)-8-chloro-N-((4,4-difluoro-1-hydroxycyclohexyl)methyl)-3-((tetrahydrofuran-3-yl)methyl)indolizine-1-carboxamide [Compound 52]” were 10 to 100 nM and 10 to 100 nM.
